Experimental data: PubChem BioAssay (NCI)
Where “and” joins values, the source holds several entries; their conditions need not be identical. Equal entries are not always repeated.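 Five compound concentrations were applied to cells in 96-well plates for 48 hours; endpoints were derived by simple linear interpolation of the resulting dose-response curve. GI50 = concentration required for 50% inhibition of growth. TGI: total growth inhibition.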

Assays:
Assay in all cases: DTP human tumour cell line panel, 48 h
HOP-62 NSCLC = tested on: HOP-62 NSCLC
MDA-MB-231 breast = tested on: MDA-MB-231 breast
MOLT-4 leukemia = tested on: MOLT-4 leukemia
RXF 393 renal = tested on: RXF 393 renal
SF-268 CNS = tested on: SF-268 CNS
SF-539 CNS = tested on: SF-539 CNS
SN12C renal = tested on: SN12C renal
SW-620 colon = tested on: SW-620 colon
TK-10 renal = tested on: TK-10 renal
CCRF-CEM leukemia = tested on: CCRF-CEM leukemia

SMILES | TGI (HOP-62 NSCLC) | TGI (MDA-MB-231 breast) | TGI (MOLT-4 leukemia) | TGI (RXF 393 renal) | TGI (SF-268 CNS) | TGI (SF-539 CNS) | TGI (SN12C renal) | TGI (SW-620 colon) | TGI (TK-10 renal) | TGI (CCRF-CEM leukemia) | GI50 (SF-268 CNS) | GI50 (HOP-62 NSCLC) | GI50 (MDA-MB-231 breast) | GI50 (MOLT-4 leukemia) | GI50 (RXF 393 renal) | GI50 (SF-539 CNS) | GI50 (SN12C renal) | GI50 (SW-620 colon) | GI50 (TK-10 renal)
O=C(Oc1cccc(Cl)c1)c1cc2cc(CCl)ccc2oc1=O | > 100 µM | > 100 µM | > 100 µM | 62.7 µM | > 100 µM | > 100 µM | > 100 µM | > 100 µM | > 100 µM | – | – | – | – | – | – | – | – | – | –
CC(C)c1cccc(C(C)C)c1OS(=O)(=O)NC(=O)OC(C(F)(F)F)C(F)(F)F | 91.3 µM | > 100 µM | 55.6 µM | – | > 100 µM | > 100 µM | > 100 µM | > 100 µM | > 100 µM | > 100 µM | – | – | – | – | – | – | – | – | –
O=C1NC2(C=Cc3c(ccc4ccccc34)O2)Oc2ccccc21 (configuration not stated) | > 100 µM | – | 30.5 µM | 43.3 µM | 58.3 µM | 50.2 µM | 63.4 µM | > 100 µM | > 100 µM | 32.1 µM | – | – | – | – | – | – | – | – | –
O=C1N[C@@H](COc2ccc(C=Nc3ccc(CCc4ccc(N=Cc5ccc(OC[C@@H]6COC(=O)N6)cc5)cc4)cc3)cc2)CO1 | > 100 µM | > 100 µM | > 100 µM | > 100 µM | > 100 µM | – | > 100 µM | > 100 µM | > 100 µM | – | – | – | – | – | – | – | – | – | –
CC1(C)CC[C@]2(C(=O)O)[C@H](O)C[C@]3(C)C(=CC[C@@H]4[C@@]5(C)CC[C@H](OC6OC(C(=O)O)C(O)C(O)C6O)C(C)(C)[C@@H]5CC[C@]43C)[C@@H]2C1 (some centres not stated) | > 100 µM | – | > 100 µM | 81.6 µM | > 100 µM | – | 94.9 µM | > 100 µM | – | > 100 µM | – | – | – | – | – | – | – | – | –
CSC1=C(C(=O)Nc2ccccc2)C(N)=NC1=O | – | > 100 µM | > 100 µM | > 100 µM | > 100 µM | > 100 µM | > 100 µM | > 100 µM | > 100 µM | > 100 µM | – | – | – | – | – | – | – | – | –
CCCCCCCCCCSCC(CO)NC(=O)/C=C/c1c(C)[nH]c(=O)[nH]c1=O (configuration not stated) | > 31.1 µM and 31.2 µM | – | 16.8 µM and 9.45 µM | > 25.7 µM | 10.2 µM and > 21.4 µM | > 36.5 µM | 17.7 µM and > 32.8 µM | > 50 µM | – | 3.97 µM and 2.97 µM | 0.895 µM | – | – | – | – | – | – | – | –
Cc1ccc2c(=O)c(-c3n[nH]c(=S)s3)c[nH]c2n1 | > 100 µM | > 100 µM | > 100 µM | > 100 µM | > 100 µM | – | > 100 µM | > 100 µM | > 100 µM | > 100 µM | – | – | – | – | – | – | – | – | –
CC[C@H](C)C1=C(OC(C)=O)[N@+]2([O-])Oc3ccc(-c4c(OC(C)=O)c(OC(C)=O)c(-c5ccc(OC(C)=O)cc5)c(OC(C)=O)c4OC(C)=O)cc3O[C@]2([C@@H](C)CC)C(=O)N1OC(C)=O | – | > 50 µM | 36 µM | > 50 µM | > 50 µM | 28.5 µM | > 50 µM | > 50 µM | > 50 µM | 11.3 µM | – | – | – | – | – | – | – | – | –
NCCCC[C@H](N)C(=O)Nc1ccc(-c2nc3ccccc3s2)cc1Cl | 31.7 µM | 26.6 µM | > 24.1 µM | 27.3 µM | 25.5 µM | – | 27.7 µM | 23.6 µM | 26.2 µM | 14.7 µM | – | – | – | – | – | – | – | – | –
COc1ccc2[nH]c(O)c(/C=c3/cc4c(c(-c5ccc(F)cc5)n3)=Nc3ccccc3-4)c2c1 | 3.69 µM | 3.87 µM | 5.21 µM | 7.53 µM | 43.8 µM | 20.6 µM | 18.8 µM | 3.89 µM | 5.32 µM | – | 5.43 µM | 1.88 µM | 1.2 µM | 1.97 µM | 2.25 µM | 7.62 µM | 4.19 µM | 1.85 µM | 2.71 µM
c1ccc(CCn2cncn2)cc1 | > 100 µM | – | > 100 µM | – | > 100 µM | > 100 µM | > 100 µM | > 100 µM | > 100 µM | > 100 µM | – | – | – | – | – | – | – | – | –
c1ccc(C2[C@@H]3CCCc4ccccc4C3=NN2c2ccccc2)cc1 (some centres not stated) | > 100 µM | – | > 100 µM | > 100 µM | > 100 µM | – | > 100 µM | > 100 µM | > 100 µM | > 100 µM | – | – | – | – | – | – | – | – | –
O=P1(c2ccccc2)C2=CCC=CC2C(c2ccccc2)N1Cc1ccccc1 (configuration not stated) | 37.6 µM | 33.6 µM | 38.7 µM | – | 30.9 µM | 31.5 µM | 31.5 µM | 43 µM | 35.4 µM | 34.9 µM | – | – | – | – | – | – | – | – | –
CCC1(O)CC(OC2CC(N(C)C)C(OC3CC(O)C(OC4CCC(=O)C(C)O4)C(C)O3)C(C)O2)c2c(O)c3c(c(O)c2C1C(=O)OC)C(=O)c1cccc(O)c1C3=O (configuration not stated) | 0.138 µM and 0.119 µM | 0.28 µM and 0.229 µM | – | – | 0.32 µM and 0.973 µM | 0.127 µM and 0.0653 µM | 0.175 µM | 0.0394 µM | 0.392 µM and 0.211 µM | 0.0328 µM | – | – | – | – | – | – | – | – | –
COc1ccccc1NCC(=O)Nn1c(C)nc2ccc(S(=O)(=O)Nc3ccccc3OC)cc2c1=O | > 100 µM | > 100 µM | > 100 µM | – | > 100 µM | > 100 µM | > 100 µM | > 100 µM | > 100 µM | > 100 µM | – | – | – | – | – | – | – | – | –
